Reference: the supplement of paper PMC4862054

Tests used:
Assay in all cases: drug sensitivity score (DSS), CellTiter-Blue viability (DSS (AUC-based score)); higher = stronger viability inhibition; extreme values may be limits of the assay
Settings in all cases: incubation time: 72 h
HCC1937 = tested on: HCC1937
Procedure: (§1)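 DSRT with the CellTiter-Blue (resazurin reduction) viability readout, fluorescence 560/590 nm, 72 h incubation. Plates were normalised to DMSO and benzethonium chloride controls. DSS is computed from the area under the fitted dose-response curve (5 or 9 concentrations).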

HCC1599 = tested on: HCC1599
Procedure: as §1

CAL-120 = tested on: CAL-120
Procedure: as §1

MDA-MB-453 = tested on: MDA-MB-453
Procedure: as §1

HCC1143 = tested on: HCC1143
Procedure: as §1

CAL-85-1 = tested on: CAL-85-1
Procedure: as §1

MDA-MB-468 = tested on: MDA-MB-468
Procedure: as §1

MDA-MB-231 = tested on: MDA-MB-231
Procedure: as §1

Hs578T = tested on: Hs578T
Procedure: as §1

HDQ-P1 = tested on: HDQ-P1
Procedure: as §1

| SMILES | drug sensitivity score (HCC1937) | drug sensitivity score (HCC1599) | drug sensitivity score (CAL-120) | drug sensitivity score (MDA-MB-453) | drug sensitivity score (HCC1143) | drug sensitivity score (CAL-85-1) | drug sensitivity score (MDA-MB-468) | drug sensitivity score (MDA-MB-231) | drug sensitivity score (Hs578T) | drug sensitivity score (HDQ-P1) |
| --- | --- | --- | --- | --- | --- | --- | --- | --- | --- | --- |
| Cc1ccc(C(=O)N(CCCN)[C@@H](c2oc3cc(Cl)ccc3c(=O)c2Cc2ccccc2)C(C)C)cc1 | 29.8 | 0 | 27.6 | 21.5 | 19.5 | 19.9 | 23.8 | 31.2 | 25.7 | 10.1 |
| CO[C@H]1/C=C\C=C(/C)C(=O)NC2=CC(=O)C(NCCN(C)C)=C(C[C@@H](C)C[C@H](OC)[C@H](O)[C@@H](C)/C=C(\C)[C@@H]1OC(N)=O)C2=O [Alvespimycin] | 17.2 | 10.5 | 15.3 | 22.6 | 11.5 | 13.7 | 10.4 | 12.2 | 16.5 | 13.8 |
| N.N.[Cl][Pt][Cl] [Cisplatin] | 0 | 0 | 0 | 0 | 0 | 0 | 0 | 0 | 0 | 0 |
| Cn1c(Nc2ccc(C(F)(F)F)cc2)nc2cc(Oc3ccnc(-c4ncc(C(F)(F)F)[nH]4)c3)ccc21 [RAF265] | 4.12 | 0 | 6.51 | 0 | 7.68 | 0 | 0.566 | 4.5 | 1.15 | 9.94 |
| C=C(c1ccc(C(=O)O)cc1)c1cc2c(cc1C)C(C)(C)CCC2(C)C [Bexarotene] | 2.11 | 0 | 0 | 0 | 0 | 0 | 0 | 0 | 0 | 0 |
| COc1cc([C@@H]2c3cc4c(cc3[C@@H](O[C@@H]3O[C@@H]5CO[C@@H](C)O[C@H]5[C@H](O)[C@H]3O)[C@H]3COC(=O)[C@H]23)OCO4)cc(OC)c1O [Etoposide] | 6.25 | 2.06 | 4.94 | 0 | 7.4 | 2.33 | 6.16 | 3.4 | 5.23 | 3.32 |
| NC(=O)Nc1cc(-c2cccc(F)c2)sc1C(=O)N[C@H]1CCCNC1 [AZD 7762] | 2.04 | 5.69 | 2.17 | 5.94 | 1.6 | 6.01 | 2.52 | 1.83 | 5.73 | 3.34 |
| Cc1ccc(C(=O)Nc2ccc(CN3CCN(C)CC3)c(C(F)(F)F)c2)cc1C#Cc1cnc2cccnn12 [Ponatinib] | 0 | 2.44 | 7.25 | 5.67 | 0 | 0 | 0 | 7.46 | 0.512 | 4.79 |
| Oc1nc(-c2ccc(C(F)(F)F)cc2)nc2c1CSCC2 [XAV-939] | 0 | 0 | 0 | 0 | 7.23 | 0 | 0 | 2.73 | 0 | 0.887 |
| Cc1ccc(-n2nc(C(C)(C)C)cc2NC(=O)Nc2ccc(OCCN3CCOCC3)c3ccccc23)cc1 [Doramapimod] | 0 | 0 | 0 | 0 | 0 | 6.15 | 0 | 0 | 0 | 0 |
| CN(N=O)C(=O)N[C@@H](C=O)[C@@H](O)[C@H](O)[C@H](O)CO [Streptozocin] | 3.78 | 0 | 0 | 0 | 0 | 0 | 0 | 0 | 0 | 0 |
| CNCc1ccc(-c2[nH]c3cc(F)cc4c3c2CCNC4=O)cc1 [Rucaparib] | 6.08 | 0 | 0 | 2.23 | 0 | 0 | 0 | 2.45 | 0 | 0 |
| CCN(CCCOc1ccc2c(Nc3cc(CC(=O)Nc4cccc(F)c4)[nH]n3)ncnc2c1)CCOP(=O)(O)O [Barasertib] | 9.75 | 0 | 8.21 | 11.8 | 0 | 4.42 | 12.1 | 3.7 | 7.48 | 0 |
| CC(C)Cn1cnc2c(N)nc3ccccc3c21 [Imiquimod] | 0 | 0 | 0 | 0.443 | 0 | 0 | 0 | 0 | 0 | 0 |
| N[C@@H](CSC(c1ccccc1)(c1ccccc1)c1ccccc1)C(=O)O [S-trityl-L-cysteine] | 16.4 | 0 | 10.4 | 0 | 1.21 | 0 | 12 | 14.7 | 12.9 | 0 |
| COc1cc2nccc(Oc3ccc(NC(=O)C4(C(=O)Nc5ccc(F)cc5)CC4)cc3)c2cc1OC [Cabozantinib] | 0 | 0 | 0 | 1.25 | 0 | 0 | 0 | 0 | 0 | 0 |
| CC1(C)NC(=O)N(c2ccc([N+](=O)[O-])c(C(F)(F)F)c2)C1=O [Nilutamide] | 0 | 0 | 0 | 0 | 0 | 0 | 0 | 0 | 0 | 0 |
| C#Cc1cccc(Nc2ncnc3cc(OCCOC)c(OCCOC)cc23)c1 [Erlotinib] | 4.19 | 3.83 | 3.43 | 2.55 | 0 | 8.53 | 5.57 | 0 | 0 | 7.17 |
| CC(=O)Nc1ccc(C(=O)Nc2ccccc2N)cc1 [CI-994] | 0 | 0 | 0 | 0 | 0 | 0 | 0 | 0 | 0 | 0 |
| C[C@@H](Oc1cc(-c2cnn(C3CCNCC3)c2)cnc1N)c1c(Cl)ccc(F)c1Cl [Crizotinib] | 6.92 | 0 | 6.42 | 8.6 | 2.03 | 3.39 | 4.88 | 9.17 | 1.65 | 1.42 |
| CN(C)/N=N/c1[nH]cnc1C(N)=O [Dacarbazine] | 0 | 0 | 0 | 0 | 0 | 0 | 0 | 0 | 0 | 0 |
| O=C1CCC(N2C(=O)c3ccccc3C2=O)C(=O)N1 (stereo not given) [Thalidomide] | 0 | 0 | 0 | 0 | 0 | 0 | 0 | 0 | 0 | 0 |
| Clc1ccc(Nc2nnc(Cc3ccncc3)c3ccccc23)cc1 [Vatalanib] | 0 | 0 | 0 | 0 | 0 | 0 | 0 | 0 | 0 | 0 |
| C[C@]12CC[C@@H]3c4ccc(O)cc4C[C@@H](CCCCCCCCC[S+]([O-])CCCC(F)(F)C(F)(F)F)[C@H]3[C@@H]1CC[C@@H]2O (stereo not given in full) [Fulvestrant] | 0 | 0 | 0 | 0 | 0 | 0 | 0 | 0 | 0 | 0 |
| CN[C@@H]1C[C@H]2O[C@@](C)([C@@H]1OC)n1c3ccccc3c3c4c(c5c6ccccc6n2c5c31)C(=O)N[C@H]4O [UCN-01] | 20 | 17 | 24.2 | 18.2 | 22.2 | 17.3 | 22.4 | 24.5 | 29.2 | 19.9 |
| O=P1(NCCCl)OCCCN1CCCl (stereo not given) [Ifosfamide] | 0 | 0 | 0 | 0 | 0 | 0 | 0 | 0 | 0 | 0 |
| NCC(=O)CCC(=O)O [Aminolevulinic acid] | 0 | 0 | 0 | 0 | 0 | 0 | 0 | 0 | 0 | 0 |
| Cn1c(CCCC(=O)O)nc2cc(N(CCCl)CCCl)ccc21 [Bendamustine] | 0 | 0 | 0 | 0 | 0 | 0 | 0 | 0 | 0 | 0 |
| CCC1=C[C@@H]2CN(C1)Cc1c([nH]c3ccccc13)[C@@](C(=O)OC)(c1cc3c(cc1OC)N(C)[C@H]1[C@@](O)(C(=O)OC)[C@H](OC(C)=O)[C@]4(CC)C=CCN5CC[C@]31[C@@H]54)C2 [Vinorelbine] | 25.3 | 9.76 | 24.4 | 26.1 | 16.8 | 20.9 | 18.2 | 22.8 | 24.6 | 16.5 |
| CCC1(c2ccc(N)cc2)CCC(=O)NC1=O (stereo not given) [Aminoglutethimide] | 0 | 0 | 0 | 0 | 0 | 0 | 0 | 0 | 0 | 0 |
